{"source": "patent US9161502B2", "about": "“Brassica juncea lines with a canola fatty acid profile” (PIONEER HI BRED INTERNATIONAL INC, priority 2007, dated 2015)", "tested_on": "B. juncea seed", "assay": "EMS kill curves: germination of B. juncea seed treated with various concentrations of EMS", "format": "in vivo, Brassica juncea", "conditions": "for % germination: seeds soaked 18 hours, germination box 25° C., 7 days", "protocol": "A bulk population (99SJ-1309) was created for this experiment from 8 different low glucosinolate and low erucic acid B. juncea breeding lines. These lines were selected for a range of quality and agronomic traits such as oil content and seed size. 500 seeds of the bulk population were used for each treatment of the following experiment. The seeds were soaked in various concentrations EMS for 18 hours and then washed 3 times. A sub-sample of 100 seeds was placed in a germination box at 25° C. for 7 days. After 7 days, the number of seeds that germinated and produced a healthy radicle was calculated. All seeds that were treated with EMS took at least 2 days longer to germinate than controls.\nEMS treatment of seed affected the germination rate (FIG. 1, Table 2 and Table 3). […] This experiment was not replicated. Its purpose was to evaluate the effect of EMS on seed germination rate. The first experiment was designed to test a broad range of EMS application rates and the second experiment was to reduce the range of EMS treatment to develop the desirable mutations (Table 3)."}
{"smiles": "CCOS(C)(=O)=O", "note": "[EMS, ethyl methane sulfonate]", "values": [{"measurement": "germination rate versus expectation", "setting": "0.36% EMS treatment rate", "result": "much lower germination rate than expected"}, {"measurement": "germination rate", "setting": "0.48% EMS, text summary of Experiment 1", "result": "approximately 50%"}, {"measurement": "delay of germination versus controls", "setting": "all seeds treated with EMS", "result": "at least 2 days"}, {"measurement": "germination rates", "setting": "highest concentrations of EMS", "result": "less than 50%"}, {"measurement": "% germination", "setting": "kill curve #1 (Treatment 1), EMS 0.16% w/v", "result": 93, "unit": "%"}, {"measurement": "% germination", "setting": "kill curve #1 (Treatment 1), EMS 0.33% w/v", "result": 90, "unit": "%"}, {"measurement": "% germination", "setting": "kill curve #1 (Treatment 1), EMS 0.48% w/v", "result": 61, "unit": "%"}, {"measurement": "% germination", "setting": "kill curve #1 (Treatment 1), EMS 0.64% w/v", "result": 39, "unit": "%"}, {"measurement": "% germination", "setting": "kill curve #2 (Treatment 2), EMS 0.36% w/v", "result": 57, "unit": "%"}, {"measurement": "% germination", "setting": "kill curve #2 (Treatment 2), EMS 0.42% w/v", "result": 68, "unit": "%"}, {"measurement": "% germination", "setting": "kill curve #2 (Treatment 2), EMS 0.48% w/v", "result": 43, "unit": "%"}, {"measurement": "% germination", "setting": "kill curve #2 (Treatment 2), EMS 0.56% w/v", "result": 46, "unit": "%"}, {"measurement": "effect on germination rate", "setting": "lowest concentrations (0.16 and 0.33%)", "result": "little effect on germination rate"}]}
